Measurements taken from patent US20210284668A1, “GOLD (I)-PHOSPHINE 1,2,3-TRIAZOLE DERIVATIVES WITH ANTIBIOTIC PROPERTIES” (Centre National de la Recherche Scientifique, priority 2018, published 2021).
“And” between values parts separate entries of the source, which are not always exact repeats. Identical values can stand only once.

Columns and labels:
S. aureus ATCC25923 = experiment: MIC by microdilution, S. aureus ATCC25923; assay type: cell-based, Staphylococcus aureus; conditions: S. aureus ATCC25923 (MecA negative, wild-type), Mueller-Hinton broth, in duplicate
Method: (§1) The antibacterial profile of each derivative was evaluated by the standard microdilution method for susceptibility testing on 16 different strains, following the guidelines of CLSI. The selected panel included: • S. aureus ATCC25923 (MecA negative, wild-type) • S. aureus ATCC29213 (MecA negative, wild-type) • S. aureus ATCC700699 (MecA positive, glycopeptide resistant) • S. aureus ST20131365 (MecA positive, glycopeptide resistant) • S. epidermidis ATCC14990 (MecA negative, wild-type) • S. epidermidis ATCC35984 (MecA positive) • S. epidermidis ST20140436 (MecA positive, glycopeptide resistant) • S. epidermidis ST20150446 (MecA positive, glycopeptide resistant) • E. faecalis JH2-2 (wild-type) • E. faecalis UCN41 (VanA positive, glycopeptide resistant) • E. faecalis V583 (VanB positive, glycopeptide resistant) • E. faecium ATCC19434T (wild-type) • E. faecium BM4147 (VanA positive, glycopeptide resistant) • E. faecium AUS0004 (VanB positive, glycopeptide resistant) • E. coli ATCC25922 (wild-type) • Clostridium difficile ATCC9689 (wild-type)
(§2) Both series issued from the SAR study were evaluated for their antibacterial activity on a panel of characterized strains obtained from the French National Reference Centers for Staphylococci (Lyon, Pr. Fréderique Laurent) and for Enterococci (Caen, Pr. Vincent Cattoir), respectively. As shown in the following tables, both series contain very active compounds on multi-resistant Gram-positive bacteria (Minimal Inhibitory Concentrations lower than comparator antibiotic ampicillin). Furthermore, a very important antibacterial effect has been shown too on a strain of Clostridium difficile, a Gram-positive, spore-forming, bacillus responsible for post-antibiotic diarrhoae.
(§3) The antibacterial activity of test compounds was evaluated on a selected panel of Gram-positive (4 Staphylococcus aureus, 4 Staphylococcus epidermidis, 3 Enterococcus faecalis, 3 Enterococcus faecium, 1 Clostridium difficile) and Gram-negative strains (1 Escherichia coli, 1 Klebsiella pneumoniae, 1 Pseudomonas aeruginosa, 1 Acinetacter baumannii) with known features of antibiotic resistance (from wild-type susceptibility to multi-drug resistance). The Minimal Inhibitory Concentration (MIC) of test compounds was determined in duplicate by the microdilution method in 96-well microplates with a final volume of 100 μL per well and Mueller-Hinton broth as the growth medium, as recommended by the CLSI (Clinical and Laboratory Standards Institute, document Mo7-A10, USA).

[1] = test system: panel of Gram-positive and Gram-negative strains; experiment: Antibacterial profile on the selected panel of strains; assay type: cell-based; conditions: summary of Tables 1-12
Method: as §1, §2, §3

S. epidermidis ATCC14990 = experiment: MIC by microdilution, S. epidermidis ATCC14990; assay type: cell-based, Staphylococcus epidermidis; conditions: S. epidermidis ATCC14990 (MecA negative, wild-type), in duplicate
Method: as §1, §2, §3

E. faecium ATCC19434T = experiment: MIC by microdilution, E. faecium ATCC19434T; assay type: cell-based, Enterococcus faecium; design: unit not given here; conditions: E. faecium ATCC19434T (wild-type), in duplicate
Method: as §1, §2, §3

S. epidermidis ATCC35984 = experiment: MIC by microdilution, S. epidermidis ATCC35984; assay type: cell-based, Staphylococcus epidermidis; conditions: S. epidermidis ATCC35984 (MecA positive), in duplicate
Method: as §1, §2, §3

E. faecalis UCN41 = experiment: MIC by microdilution, E. faecalis UCN41; assay type: cell-based, Enterococcus faecalis; design: unit not given here; conditions: E. faecalis UCN41 (VanA positive, glycopeptide resistant), in duplicate
Method: as §1, §2, §3

S. aureus ATCC700699 = experiment: MIC by microdilution, S. aureus ATCC700699; assay type: cell-based, Staphylococcus aureus; design: unit not given here; conditions: S. aureus ATCC700699 (MecA positive, glycopeptide resistant), in duplicate
Method: as §1, §2, §3

E. faecalis JH2-2 = experiment: MIC by microdilution, E. faecalis JH2-2; assay type: cell-based, Enterococcus faecalis; design: unit not given here; conditions: E. faecalis JH2-2 (wild-type), in duplicate
Method: as §1, §2, §3

E. faecium BM4147 = experiment: MIC by microdilution, E. faecium BM4147; assay type: cell-based, Enterococcus faecium; design: unit not given here; conditions: E. faecium BM4147 (VanA positive, glycopeptide resistant), in duplicate
Method: as §1, §2, §3

SMILES	Minimal Inhibitory Concentration (MIC) (S. aureus ATCC25923)	antimicrobial / antibacterial activity (in words) [1]	Minimal Inhibitory Concentration (MIC) (S. epidermidis ATCC14990)	Minimal Inhibitory Concentration (MIC) (E. faecium ATCC19434T)	Minimal Inhibitory Concentration (MIC) (S. epidermidis ATCC35984)	Minimal Inhibitory Concentration (MIC) (E. faecalis UCN41)	Minimal Inhibitory Concentration (MIC) (S. aureus ATCC700699)	Minimal Inhibitory Concentration (MIC) (E. faecalis JH2-2)	Minimal Inhibitory Concentration (MIC) (E. faecium BM4147)
C[C@@H]1COc2c(N3CCN(C)CC3)c(F)cc3c(=O)c(C(=O)O)cn1c23 [TMB47, Ofloxacin, reference compound]	0.25	have antimicrobial activity	0.25	4	0.125	2	>8	2	1
CC[P+](CC)(CC)[Au-][c]1nn[nH]c1CN1C(=O)NC2CSC(CCCCC(=O)O)C21 (centres unmarked) [TMB48]	0.25	have antimicrobial activity	0.125	1	0.125	1	0.5	1	2
CC[P+](CC)(CC)[Au-][c]1nn[nH]c1CNc1c(F)cc2c(=O)c(C(=O)O)cn3c2c1OCC3C (centres unmarked) [TMB49]	0.125	have antimicrobial activity	≤0.06	0.5 and 1	≤0.06	1	0.25	1	1
CC(=O)O.CC[P+](CC)(CC)[Au-][c]1nn[nH]c1CCN [TMB50]	0.125	have antimicrobial activity	≤0.06	0.25	≤0.06	0.5	0.125	0.25	0.25
C#CCNc1c(F)cc2c(=O)c(C(=O)O)cn3c2c1OCC3C (centres unmarked) [TMB51]	2	do not show an antibacterial activity	4	>8	2	>8	>8	>8	>8
CC[P+](CC)(CC)[Au-][c]1nn[nH]c1CNC(=O)NC(C(=O)O)c1ccccc1 (centres unmarked) [TMB52]		have antimicrobial activity	≤0.06	0.25	≤0.06	0.25	0.125	0.25	0.25
